Results from PubChem BioAssay (NCI).
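Compound exposure: 48 hours, 5 concentrations, 96-well plates. Here, GI50 denotes the concentration required for 50% inhibition of growth. Definition used: TGI = concentration required for complete inhibition of growth.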

Key:
Assay in all cases: NCI-60 cell line screen, 48 h
SR leukemia = test system: SR leukemia
RPMI-8226 leukemia = test system: RPMI-8226 leukemia
DU-145 prostate = test system: DU-145 prostate
MCF7 breast = test system: MCF7 breast
NCI-H23 lung = test system: NCI-H23 lung
CAKI-1 renal = test system: CAKI-1 renal
PC-3 prostate = test system: PC-3 prostate
SNB-19 CNS = test system: SNB-19 CNS
MALME-3M melanoma = test system: MALME-3M melanoma
SK-MEL-28 melanoma = test system: SK-MEL-28 melanoma

Row | Compound | GI50 (SR leukemia) [µM] | TGI (SR leukemia) [µM] | GI50 (RPMI-8226 leukemia) [µM] | TGI (RPMI-8226 leukemia) [µM] | GI50 (DU-145 prostate) [µM] | TGI (DU-145 prostate) [µM] | GI50 (MCF7 breast) [µM] | TGI (MCF7 breast) [µM] | GI50 (NCI-H23 lung) [µM] | TGI (NCI-H23 lung) [µM] | GI50 (CAKI-1 renal) [µM] | TGI (CAKI-1 renal) [µM] | GI50 (PC-3 prostate) [µM] | TGI (PC-3 prostate) [µM] | GI50 (SNB-19 CNS) [µM] | TGI (SNB-19 CNS) [µM] | GI50 (MALME-3M melanoma) [µM] | TGI (MALME-3M melanoma) [µM] | GI50 (SK-MEL-28 melanoma) [µM] | TGI (SK-MEL-28 melanoma) [µM]
1 | Nc1cc2c3ccccc3ccc2c2ccccc12 | > 100 | > 100 | > 45.9 | > 100 | > 87.4 | > 100 | 20.2 | > 100 | > 100 | > 100 | > 100 | > 100 | 7.78 | > 100 | > 100 | > 100 | > 100 | > 100 | > 100 | > 100
2 | NS(=O)(=O)c1ccc(NC(=O)Nc2cccc3ccccc23)cc1 |  | > 100 |  | > 100 |  | 81.3 |  | > 100 |  | > 100 |  | > 100 |  | 44 |  | 44.8 |  | > 100 |  | > 100
3 | OCC1OC(n2cnc3cc(Cl)c(Cl)cc32)C(O)C1O (stereo not drawn) | 0.648 |  | 30 | > 72.5 | 17.2 | > 61.2 | 21.5 | 75.9 | 18.8 | 42.3 | 14.2 | 47.8 | 44.5 | > 100 | 25.3 | > 100 | 25.5 | 67.5 | 29.3 | > 100
4 | C[C@H]1O[C@@H](O[C@H]2[C@@H](O)C[C@H](O[C@H]3[C@@H](O)C[C@H](O[C@H]4CC[C@]5(C)C6CC[C@]7(C)[C@@H](C8=CC(=O)OC8)CC[C@]7(O)C6CC[C@@H]5C4)O[C@@H]3C)O[C@@H]2C)C[C@H](O)[C@@H]1O (stereo partly drawn) |  | 0.0512 | 0.0194 | 0.135 | 0.0113 | 0.0249 | 0.0181 | 0.11 | 0.0117 | 0.0355 | 0.0126 | 0.0339 | 0.0194 | 0.106 | 0.03 | 0.0948 | 0.019 | 0.0783 | 0.0313 | 0.101
5 | Cc1c(-c2c(F)cc(C(N)=O)c3[nH]c4c(c23)CC[C@H](C(C)(C)O)C4)cccc1-n1c(=O)c2cccc(F)c2n(C)c1=O | 1.88 | 5.81 | 2.82 | 9.01 | 5.63 | > 100 | 1.04 | > 100 | 2.79 | > 100 | 2.08 | > 100 | 2.67 | > 100 | 7.22 | > 100 | 1.84 | 28.2 | 4.59 | > 100
6 | N/C(=N/O)NOCCC(N)C(=O)O (stereo not drawn) | > 100 | > 100 | > 100 | > 100 | > 100 | > 100 | > 100 | > 100 | > 100 | > 100 | > 100 | > 100 | > 100 | > 100 | > 100 | > 100 | > 100 | > 100 | > 100 | > 100
7 | Cc1cccc(Nc2ncc(-c3ccccc3)o2)c1 | > 25 | > 25 | > 25 | > 25 | > 25 | > 25 | 12.9 | > 25 | > 25 | > 25 | > 25 | > 25 | > 25 | > 25 | > 25 | > 25 | > 25 | > 25 | > 25 | > 25
8 | CCN(Cc1c(F)cccc1C(F)(F)F)c1ccc(CO)c(Cl)c1 | 14.5 | 36.5 | 1.47 | 21.9 | 15.9 | 29.8 | 0.156 | 15.7 | 14.4 | 31.7 | 10.2 | 24.2 | 12.3 | 25.3 | 14.9 | 29.1 | 15.2 | 30.1 | 13.9 | 27.6
9 | CC1(/C=C/c2ccc(-c3ccccc3)cc2)CCn2cnc3ncnc(c32)N1O (stereo not drawn) | 0.31 | > 100 | 0.467 | 22.7 | 0.53 | > 56.7 | 0.342 | > 69.4 | 0.635 | 27.3 | 0.327 | 12.2 | 0.57 | 34.8 | 0.526 | > 72.6 | 0.412 | 14.7 | 0.656 | 20
10 | CN(N=O)N1C(=O)SCC(c2ccccc2)(c2ccccc2)C1=O |  | > 100 |  | 67.6 |  | > 100 |  | 62.2 |  | > 100 |  | > 100 |  | > 100 |  | > 100 |  | > 100 |  | > 100
11 | c1ccc(OCC[P+](c2ccccc2)(c2ccccc2)c2ccccc2)cc1 | 2.31 | 12.3 | 0.187 | 2.14 | 2.11 | 22.8 | 1.24 | 11.1 | 0.938 | 6.7 | 25.4 | > 100 | 0.535 | 11.6 | 1.39 | 15.1 | 1.48 | 12.9 | 1.24 | 9.81
12 | O=C(Nc1n[nH]c2cc(-c3ccc(F)cc3)ccc12)C1CC1 | 2.76 | > 25 | 8.44 | > 25 | 10.2 | > 25 | 5.54 | > 22.2 | 7.18 | > 25 | 9.75 | > 25 | 7.98 | > 25 | 12.6 | > 25 | 9.79 | > 25 | 12.3 | > 25
13 | COc1cc(N2CCN(C(C)C)CC2)ccc1Nc1nc(Nc2ccc(F)cc2C(N)=O)c2cc[nH]c2n1 | 0.0145 | 10.1 | 3.69 | 12.5 | 0.234 | 4.63 | 0.0154 | 4.07 | 0.304 | 6.65 | 0.911 | 5.29 | 3.75 | 12.9 | 3.98 | 11.4 | 0.228 | 5.22 | 3.69 | 7.59
